Test results as given in US10246419B2, “Liver X receptor (LXR) modulators” (Ralexar Therapeutics, Inc., priority 2013, dated 2019).

What follows are compounds tested against human LXRβ (AA 153-461) LBD (Homo sapiens (Human), UniProt P55055) (assay: Gal4 LXRβ cotransfection assay (LXRβ Gal fusion assay)). Conditions: HEK 293 cells transiently transfected, Gal4-responsive luciferase reporter, compounds 0.01-10 μM.
Assay type: cell-based
Protocol: For transient transfection of HEK 293 cells, 6×10^3 cells are plated into 96-well dishes. Each well is transfected with 25 ng 5×UAS-luciferase reporter (pG5luc) and 25 ng of pM human LXRβ (AA 153-461) LBD plasmid using Fugene 6 reagent (Roche; Indianapolis, Ind.). The chimeric protein is assessed for the ability to transactivate a Gal4-responsive luciferase reporter plasmid in a concentration-responsive manner to compounds (0.01-10 μM). Luciferase activity at each dose concentration is measured in triplicate using standard substrate reagents (BD Biosciences; San Diego, Calif.).

Chain of human LXRβ (AA 153-461) LBD (P55055 153-460 limits assumed): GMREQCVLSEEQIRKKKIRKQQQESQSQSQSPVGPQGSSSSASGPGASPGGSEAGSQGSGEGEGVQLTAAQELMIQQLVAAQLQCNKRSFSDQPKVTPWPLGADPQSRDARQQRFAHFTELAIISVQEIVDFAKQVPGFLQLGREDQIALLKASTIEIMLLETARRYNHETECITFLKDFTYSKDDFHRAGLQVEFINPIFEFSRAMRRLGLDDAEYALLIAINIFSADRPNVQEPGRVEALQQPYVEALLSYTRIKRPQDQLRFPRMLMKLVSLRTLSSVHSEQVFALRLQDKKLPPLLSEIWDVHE

**Q.** How did the EC50 turn out when `CC(C)Cn1nc(C(F)(F)F)cc1-c1ccc(-c2cccc(S(C)(=O)=O)c2)cc1` [Compound 4, 1-isobutyl-5-(3′-(methylsulfonyl)biphenyl-4-yl)-3-(trifluoromethyl)-1H-pyrazole] was run?
**A.** < 1000 nM

**Q.** With `CC(C)Cn1nc(C(F)(F)F)cc1-c1ccc(-c2ccc(CO)c(S(C)(=O)=O)c2)cc1` [Compound 5, (4′-(1-isobutyl-3-(trifluoromethyl)-1H-pyrazol-5-yl)-3-(methylsulfonyl)biphenyl-4-yl)methanol] as the compound, how does the EC50 read?
**A.** < 1000 nM

**Q.** For `CC(C)Cn1nc(C(=O)NCC(F)(F)F)cc1-c1ccc(-c2cccc(S(C)(=O)=O)c2)cc1` [Compound 6, 1-Isobutyl-5-(3′-(methylsulfonyl)-[1,1′-biphenyl]-4-yl)-N-(2,2,2-trifluoroethyl)-1H-pyrazole-3-carboxamide], which EC50 is on record?
**A.** < 1000 nM

**Q.** Which EC50 does the source give for `CC(C)Cn1nc(C(=O)NCC(F)(F)F)cc1-c1ccc(-c2ccc(CO)c(S(C)(=O)=O)c2)cc1` [Compound 7, 5-(4′-(Hydroxymethyl)-3′-(methylsulfonyl)-[1,1′-biphenyl]-4-yl)-1-isobutyl-N-(2,2,2-trifluoroethyl)-1H-pyrazole-3-carboxamide] here?
**A.** < 1000 nM

**Q.** `CC(C)Cc1nc(C(C)(C)O)cn1-c1ccc(-c2cccc(S(C)(=O)=O)c2)cc1` [Compound 8, 2-(2-isobutyl-1-(3′-(methylsulfonyl)-[1,1′-biphenyl]-4-yl)-1H-imidazol-4-yl)propan-2-ol] was tested. Which EC50 did it give?
**A.** 1000 to 10000 nM

**Q.** Which EC50 does the source give for `C=C(C)c1cc(-c2ccc(-c3cccc(S(C)(=O)=O)c3)cc2)n(CC(C)C)n1` [Compound 9, 1-isobutyl-5-(3′-(methylsulfonyl)-[1,1′-biphenyl]-4-yl)-3-(prop-1-en-2-yl)-1H-pyrazole] here?
**A.** 1000 to 10000 nM

**Q.** With `CC(C)Cn1nc(C(C)(C)O)cc1-c1ccc(-c2ccc(CO)c(S(C)(=O)=O)c2)cc1` [Compound 10, 2-(5-(4′-(Hydroxymethyl)-3′-(methylsulfonyl)-[1,1′-biphenyl]-4-yl)-1-isobutyl-1H-pyrazol-3-yl)propan-2-ol] as the compound, how does the EC50 read?
**A.** 1000 to 10000 nM

**Q.** Which EC50 does the source give for `CC(C)Cn1nc(C(C)(C)O)cc1-c1ccc(-c2cccc(S(C)(=O)=O)c2)cc1` [Compound 11, 2-(1-isobutyl-5-(3′-(methylsulfonyl)-[1,1′-biphenyl]-4-yl)-1H-pyrazol-3-yl)propan-2-ol] here?
**A.** 1000 to 10000 nM

**Q.** `CC(C)Cn1nc(C(C)C)cc1-c1ccc(-c2cccc(S(C)(=O)=O)c2)cc1` [Compound 12, 1-isobutyl-3-isopropyl-5-(3′-(methylsulfonyl)-[1,1′-biphenyl]-4-yl)-1H-pyrazole] was tested. Which EC50 did it give?
**A.** 1000 to 10000 nM

**Q.** With `CS(=O)(=O)c1cccc(-c2ccc(-c3cc(C(F)(F)F)nn3CC3CC3)cc2)c1` [Compound 18, 1-(cyclopropylmethyl)-5-(3′-(methylsulfonyl)-[1,1′-biphenyl]-4-yl)-3-(trifluoromethyl)-1H-pyrazole] as the compound, how does the EC50 read?
**A.** < 1000 nM

**Q.** `CCC(C)n1nc(C(F)(F)F)cc1-c1ccc(-c2cccc(S(C)(=O)=O)c2)cc1` (stereo not shown) [Compound 19, 1-(sec-butyl)-5-(3′-(methylsulfonyl)-[1,1′-biphenyl]-4-yl)-3-(trifluoromethyl)-1H-pyrazole] was tested. Which EC50 did it give?
**A.** > 10000 nM

**Q.** Which EC50 does the source give for `CS(=O)(=O)c1cccc(-c2ccc(-c3cc(C(F)(F)F)nn3C3CCCCC3)cc2)c1` [Compound 20, 1-cyclohexyl-5-(3′-(methylsulfonyl)-[1,1′-biphenyl]-4-yl)-3-(trifluoromethyl)-1H-pyrazole] here?
**A.** > 10000 nM

**Q.** How did the EC50 turn out when `CS(=O)(=O)c1cccc(-c2ccc(-c3cc(C(F)(F)F)nn3CC3CCCCC3)cc2)c1` [Compound 21, 1-(cyclohexylmethyl)-5-(3′-(methylsulfonyl)-[1,1′-biphenyl]-4-yl)-3-(trifluoromethyl)-1H-pyrazole] was run?
**A.** < 1000 nM
